Data reported in PubChem BioAssay (NCI).
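1) Cells in 96-well plates. 2) Compound, 48 h, 5 concentrations. 3) Linear interpolation between surrounding doses. 4) Unreached endpoint = highest concentration. Definition used: TGI = concentration required for complete inhibition of growth.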

Legend:
Experiment in all cases: NCI-60 cell line screen, 48 h
A549 NSCLC = tested on: A549 NSCLC
HS 578T breast = tested on: HS 578T breast
SK-MEL-2 melanoma = tested on: SK-MEL-2 melanoma
BT-549 breast = tested on: BT-549 breast
786-0 renal = tested on: 786-0 renal
NCI-H23 lung = tested on: NCI-H23 lung
NCI/ADR-RES ovarian = tested on: NCI/ADR-RES ovarian
UACC-62 melanoma = tested on: UACC-62 melanoma
SF-295 CNS = tested on: SF-295 CNS
TK-10 renal = tested on: TK-10 renal
SNB-19 CNS = tested on: SNB-19 CNS
OVCAR-3 ovarian = tested on: OVCAR-3 ovarian
NCI-H226 lung = tested on: NCI-H226 lung
HL-60(TB) leukemia = tested on: HL-60(TB) leukemia
COLO 205 colon = tested on: COLO 205 colon
HOP-62 NSCLC = tested on: HOP-62 NSCLC
SF-268 CNS = tested on: SF-268 CNS
HCC-2998 colon = tested on: HCC-2998 colon
SN12C renal = tested on: SN12C renal
OVCAR-8 ovarian = tested on: OVCAR-8 ovarian
MDA-MB-435 = tested on: MDA-MB-435
MALME-3M melanoma = tested on: MALME-3M melanoma
SW-620 colon = tested on: SW-620 colon
DU-145 prostate = tested on: DU-145 prostate
SK-OV-3 ovarian = tested on: SK-OV-3 ovarian
NCI-H522 lung = tested on: NCI-H522 lung
K-562 leukemia = tested on: K-562 leukemia
IGROV1 ovarian = tested on: IGROV1 ovarian
U251 CNS = tested on: U251 CNS
KM12 colon = tested on: KM12 colon
LOX IMVI melanoma = tested on: LOX IMVI melanoma
UACC-257 melanoma = tested on: UACC-257 melanoma
M14 melanoma = tested on: M14 melanoma
UO-31 renal = tested on: UO-31 renal
MOLT-4 leukemia = tested on: MOLT-4 leukemia
PC-3 prostate = tested on: PC-3 prostate
SF-539 CNS = tested on: SF-539 CNS
MDA-MB-231 breast = tested on: MDA-MB-231 breast
HCT-116 colon = tested on: HCT-116 colon
OVCAR-5 ovarian = tested on: OVCAR-5 ovarian
OVCAR-4 ovarian = tested on: OVCAR-4 ovarian
RXF 393 renal = tested on: RXF 393 renal
EKVX NSCLC = tested on: EKVX NSCLC
CAKI-1 renal = tested on: CAKI-1 renal
MDA-N = tested on: MDA-N
MCF7 breast = tested on: MCF7 breast
ACHN renal = tested on: ACHN renal
RPMI-8226 leukemia = tested on: RPMI-8226 leukemia
SK-MEL-28 melanoma = tested on: SK-MEL-28 melanoma
NCI-H460 lung = tested on: NCI-H460 lung
SNB-75 CNS = tested on: SNB-75 CNS
T-47D breast = tested on: T-47D breast
HOP-92 NSCLC = tested on: HOP-92 NSCLC
CCRF-CEM leukemia = tested on: CCRF-CEM leukemia
SK-MEL-5 melanoma = tested on: SK-MEL-5 melanoma
HT29 colon = tested on: HT29 colon
HCT-15 colon = tested on: HCT-15 colon
SR leukemia = tested on: SR leukemia
A498 renal = tested on: A498 renal

## NC(=O)CN1CCN(c2nc(N3CCCC3)c3nc(Cl)c(NCc4ccccc4)nc3n2)CC1
A549 NSCLC
  TGI: 35.2 µM
HS 578T breast
  TGI: 24.2 µM
SK-MEL-2 melanoma
  TGI: 17.3 µM
BT-549 breast
  TGI: 19.5 µM
786-0 renal
  TGI: 18 µM
NCI-H23 lung
  TGI: 35.6 µM
NCI/ADR-RES ovarian
  TGI: 40.9 µM
UACC-62 melanoma
  TGI: 17.2 µM
SF-295 CNS
  TGI: 16.3 µM
TK-10 renal
  TGI: 34.7 µM
SNB-19 CNS
  TGI: 18.9 µM
OVCAR-3 ovarian
  TGI: 16.3 µM
NCI-H226 lung
  TGI: 39.9 µM
HL-60(TB) leukemia
  TGI: 19.2 µM
COLO 205 colon
  TGI: 15.8 µM
HOP-62 NSCLC
  TGI: 4.89 µM
SF-268 CNS
  TGI: 17 µM
HCC-2998 colon
  TGI: 15.4 µM
SN12C renal
  TGI: 16.9 µM
OVCAR-8 ovarian
  TGI: > 50 µM
MDA-MB-435
  TGI: 20.5 µM
MALME-3M melanoma
  TGI: 16.3 µM
SW-620 colon
  TGI: 31.4 µM
DU-145 prostate
  TGI: 28.8 µM
SK-OV-3 ovarian
  TGI: 20.4 µM
NCI-H522 lung
  TGI: 24.1 µM
K-562 leukemia
  TGI: 21 µM
IGROV1 ovarian
  TGI: 25.5 µM
U251 CNS
  TGI: 15.5 µM
KM12 colon
  TGI: 22 µM
LOX IMVI melanoma
  TGI: 16.5 µM
UACC-257 melanoma
  TGI: 19.7 µM
M14 melanoma
  TGI: 17.5 µM
UO-31 renal
  TGI: 21.9 µM
MOLT-4 leukemia
  TGI: 20.3 µM
PC-3 prostate
  TGI: 24.9 µM
SF-539 CNS
  TGI: 17.5 µM
MDA-MB-231 breast
  TGI: 20.6 µM
HCT-116 colon
  TGI: 14.7 µM
OVCAR-5 ovarian
  TGI: 17.9 µM
OVCAR-4 ovarian
  TGI: 48.2 µM
RXF 393 renal
  TGI: 16.2 µM
EKVX NSCLC
  TGI: 30.3 µM
CAKI-1 renal
  TGI: > 50 µM
MDA-N
  TGI: 16.4 µM
MCF7 breast
  TGI: 16.6 µM
ACHN renal
  TGI: 32.2 µM
RPMI-8226 leukemia
  TGI: 19.8 µM
SK-MEL-28 melanoma
  TGI: 18.5 µM
NCI-H460 lung
  TGI: 17.5 µM
SNB-75 CNS
  TGI: 24.4 µM
T-47D breast
  TGI: 20.7 µM
HOP-92 NSCLC
  TGI: 20.6 µM
CCRF-CEM leukemia
  TGI: > 50 µM
SK-MEL-5 melanoma
  TGI: 15.7 µM
HT29 colon
  TGI: 18 µM
HCT-15 colon
  TGI: 17.3 µM

## CC(C)(C)OC(=O)N[C@@H](Cc1ccccc1)C(=O)N1CC[C@@H](C(=O)N2[C@H]3CC4CC[C@@]3(CS2(=O)=O)C4(C)C)N1
A549 NSCLC
  TGI: > 100 µM
HS 578T breast
  TGI: > 100 µM
SK-MEL-2 melanoma
  TGI: > 100 µM
BT-549 breast
  TGI: > 100 µM
786-0 renal
  TGI: > 100 µM
NCI-H23 lung
  TGI: > 100 µM
NCI/ADR-RES ovarian
  TGI: > 100 µM
UACC-62 melanoma
  TGI: > 100 µM
SNB-19 CNS
  TGI: > 100 µM
OVCAR-3 ovarian
  TGI: > 100 µM
NCI-H226 lung
  TGI: > 100 µM
HL-60(TB) leukemia
  TGI: > 100 µM
COLO 205 colon
  TGI: > 100 µM
HOP-62 NSCLC
  TGI: > 100 µM
SF-268 CNS
  TGI: > 100 µM
SR leukemia
  TGI: > 100 µM
HCC-2998 colon
  TGI: > 100 µM
SN12C renal
  TGI: > 100 µM
A498 renal
  TGI: > 100 µM
OVCAR-8 ovarian
  TGI: > 100 µM
MDA-MB-435
  TGI: > 100 µM
SW-620 colon
  TGI: > 100 µM
DU-145 prostate
  TGI: > 100 µM
SK-OV-3 ovarian
  TGI: > 100 µM
K-562 leukemia
  TGI: > 100 µM
U251 CNS
  TGI: > 100 µM
KM12 colon
  TGI: > 100 µM
LOX IMVI melanoma
  TGI: > 100 µM
UACC-257 melanoma
  TGI: > 100 µM
M14 melanoma
  TGI: > 100 µM
MOLT-4 leukemia
  TGI: > 100 µM
PC-3 prostate
  TGI: > 100 µM
MDA-MB-231 breast
  TGI: > 100 µM
HCT-116 colon
  TGI: > 100 µM
OVCAR-5 ovarian
  TGI: > 100 µM
OVCAR-4 ovarian
  TGI: > 100 µM
RXF 393 renal
  TGI: > 100 µM
CAKI-1 renal
  TGI: > 100 µM
MDA-N
  TGI: > 100 µM
ACHN renal
  TGI: > 100 µM
RPMI-8226 leukemia
  TGI: > 100 µM
SK-MEL-28 melanoma
  TGI: > 100 µM
NCI-H460 lung
  TGI: > 100 µM
SNB-75 CNS
  TGI: > 100 µM
T-47D breast
  TGI: 51.1 µM
HOP-92 NSCLC
  TGI: > 100 µM
CCRF-CEM leukemia
  TGI: > 100 µM
SK-MEL-5 melanoma
  TGI: 75 µM
HT29 colon
  TGI: > 100 µM
HCT-15 colon
  TGI: > 100 µM
